{"source": "patent US10617735B2", "about": "“Methods and compositions for preserving retinal ganglion cells” (Massachusetts Eye and Ear Infirmary, priority 2010, dated 2020)", "type_in_all_cases": "in vivo, mouse", "key": {"[1]": {"system": "caspase-8, caspase-9 and caspase-3", "assay": "Caspase-8, caspase-9 and caspase-3 activities in the retina after ON injury (commercial kit)", "details": "one day after ON injury, intravitreal Z-VAD", "text": "(§1) Two mouse models of RGC death were utilized: optic nerve (ON) injury and N-methyl-D-aspartate (NMDA) retinal excitotoxicity. ON injury leads to RGC death as a result of primary damage to the axons, with its ensuing disruption of retrograde axonal transport (Libby et al., (2005) PLOS GENET 1:17-26) and is used as an RGC death model. In the ON injury model, mice were anesthetized and subjected to severe crush injury at 1-2 mm distance from the eyeball for 15 seconds using cross-action forceps taking special care not to interfere with the blood supply (Levkovitch-Verbin, (2004) EYE 18:1066-1074). Injured mice were randomly divided into 4 groups for treatment: vehicle group (0.5% DMSO and 0.8% cyclodextrin in PBS, n=6), ZVAD group (300 n=6), Nec-1 group (4 mM, n=6), and ZVAD plus Nec-1 group (n=6). Soon after injury, each group received an intravitreal injection (2 μl) with the respective compounds. […]\nIn human glaucoma, RGC death has been attributed mainly to apoptosis (Kerrigan et al., (1997), Tatton et al., (2001)). […] The activities of caspase-8, caspase-9 and caspase-3 were measured using a commercially available kit according to the manufacturer's instructions (APT171/131/139; Millipore, Billerica, Mass.)."}, "[2]": {"system": "retinal ganglion cells (RGCs)", "assay": "Transmission electron microscopy (TEM) quantification of apoptotic and necrotic RGC death after ON injury", "protocol": "In addition, the morphology of RGC death was assessed by transmission electron microscopy (TEM) as previously described (Trichonas et al., (2010) PROC NATL ACAD SCI USA)). Specifically, the eyes were enucleated, and the posterior segments were fixed in 2.5% glutaraldehyde and 2% paraformaldehyde in 0.1 M cacodylate buffer with 0.08 M CaCl2 at 4° C. The eyes were post-fixed for 1.5 hours in 2% aqueous OsO4, dehydrated in ethanol and water, and embedded in EPON. Ultrathin sections were cut from blocks and stained with saturated, aqueous uranyl acetate and Sato's lead stain. […] More than 50 RGCs per eye were photographed and subjected to quantification of cell death in a masked fashion. RGCs showing cellular shrinkage and nuclear condensation were defined as apoptotic cells, and RGCs associated with cellular and organelle swelling and discontinuities in nuclear and plasma membrane were defined as necrotic cells. Electron dense granular materials were labeled simply as end-stage unclassified cell death. Autophagosome was defined as a double- or multi-membraned structure containing cytoplasmic material and/or organelles, and autolysosome was defined as cytoplasmic vesicle containing electron dense degraded material, as previously described (Eskelinen, 2008).\nRGC death was categorized into apoptosis, necrosis and unclassified end-stage of death, as previously described (Trichonas et al., (2010) PROC NATL ACAD SCI USA). […] Co-administration of ZVAD and Nec-1 led to a substantial decrease of both apoptotic and necrotic RGC death (% apoptotic cells: 4.2±5.1%, necrotic cells: 9.8±6.6%, unclassified: 1.8±1.8%, P<0.01; FIGS. 4C and 4D).\nTo identify the RGC death mode seen after ON injury transmission electron microscopy (TEM) studies was performed as previously described. RGCs that were unable to be classified were defined as end-stage cell death/unclassified. […] RGCs contained tubular sacs of rough endoplasmic reticulum (rER) surrounded by large numbers of ribosomes (Nissl bodies). Mitochondria were identified as round or oval double-membrane structures with characteristic cristae. In addition, the cytoplasm contained elements of Golgi apparatus (GA), free ribosomes and microtubules sectioned at various angles. A large round nucleus, surrounded by a double-layered nuclear membrane, contained homogeneously dispersed karyoplasm (chromatin material) and one or two electron dense nucleoli (FIG. 8A) (Saggu et al., (2010) BMC NEUROSCI 11:97)). After ON injury, RGC death through apoptosis was predominant."}, "[3]": {"system": "retinal ganglion cells (RGCs)", "assay": "NMDA retinal excitotoxicity model: TUNEL staining", "details": "NMDA injected intravitreously in combination with the compounds", "text": "as §1, with “compounds. In the NMDA retinal excitotoxicity model, NMDA (2 μl of a 0.1M stock; Sigma-Aldrich) was injected intravitreously in combination with ZVAD, Nec-1, or ZVAD plus Nec-1 and mice were separated into the aforementioned 4 groups.” for “compounds.”"}, "[4]": {"system": "retinal ganglion cells (RGCs)", "assay": "NMDA retinal excitotoxicity model: Brn3b positive cells", "details": "NMDA injected intravitreously in combination with the compounds", "text": "as §1, with “compounds. In the NMDA retinal excitotoxicity model, NMDA (2 μl of a 0.1M stock; Sigma-Aldrich) was injected intravitreously in combination with ZVAD, Nec-1, or ZVAD plus Nec-1 and mice were separated into the aforementioned 4 groups.” for “compounds.”"}, "LC3-II": {"system": "LC3-II", "assay": "LC3 protein level after ON injury (western blot)", "details": "one day after ON injury", "protocol": "For Western blot analysis, whole retinas were harvested and lysed for 30 min on ice in lysis buffer (50 mM Tris-HCl [pH 8], with 120 mM NaCl and 1% Nonidet P-40), supplemented with a mixture of proteinase inhibitors (Complete Mini; Roche Diagnostics, Basel, Switzerland). Thirty micrograms of protein per sample were separated in a 4-20% gradient sodium dodecyl sulfate-polyacrylamide gel (SDS-PAGE) (Invitrogen Corporation, Carlsbad, Calif., USA) electrophoresis and the proteins were electroblotted onto PVDF membranes. After 20 min incubation in blocking solution (Starting Block™ T20, Thermo Scientific, Waltham, Mass.), membranes were incubated with primary antibodies overnight at 4° C. Peroxidase-labeled secondary antibodies (Amersham Pharmacia Biotech, Piscataway, N.J., USA) were used and proteins were visualized with enhanced chemiluminescence technique (Amersham Pharmacia Biotech). Full list of primary antibodies and working concentrations are shown below in Table 2.\nProtein levels of LC3, an autophagy marker, were also assessed by western blot analysis."}, "[5]": {"details": "one day after ON injury, mean±SD"}}, "note": "Where a SMILES comes first, the peptide text is derived from it. The star is where a group is joined. Cbz = O=C(OCc1ccccc1)*; CH2F = FC*", "data": [{"smiles": "COC(=O)CC(NC(=O)C(C)NC(=O)C(NC(=O)OCc1ccccc1)C(C)C)C(=O)CF", "note": "(stereo not drawn) [Z-VAD, Benzyloxycarbonyl-Val-Ala-Asp(OMe)-fluoromethylketone] (Cbz-Val-Ala-Asp(OMe)-CH2F; configuration not given here)", "values": [{"measurement": "decrease of the activities of the caspases", "setting": "[1]", "value": 70, "unit": "%"}, {"measurement": "mode of RGC death, apoptotic versus necrotic (TEM)", "setting": "[2]; after ON injury", "value": "blocked apoptotic cell death and sensitized cells to necrotic cell death"}, {"measurement": "apoptotic cells (RGC death, TEM)", "setting": "[2]; [5]", "value": "5.6±3.4", "unit": "%"}, {"measurement": "necrotic cells (RGC death, TEM)", "setting": "[2]; [5]", "value": "30.7±4.9", "unit": "%"}, {"measurement": "unclassified end-stage of death (TEM)", "setting": "[2]; [5]", "value": "3.4±2.3", "unit": "%"}, {"measurement": "number of TUNEL positive cells", "setting": "[3]", "value": "decreased the number of TUNEL positive cells"}, {"measurement": "reduction of Brn3b positive cells", "setting": "[4]", "value": "prevented the reduction of Brn3b positive cells"}, {"measurement": "protein level of LC3-II", "setting": "LC3-II", "value": "increased more than vehicle"}]}]}
